“And” between values parts separate entries of the source, which are not always exact repeats. Equal values may be shown once. Read-outs that look alike come from different tables or passages of the source.
Columns and labels:
MIF = target: T1, MIF (Homo sapiens, UniProt P14174); assay: Tautomerase assay (in vitro tautomerase inhibitory activity); type: biochemical; conditions: for MIF inhibitory activity, comparison of Compound 200 and Compound 203: in vitro activity, comparison of Table 2 (tautomerase; THP-1/MIF for 200 only); for in vitro tautomerase inhibitory activity: several different concentrations, FIG. 2 / FIG. 3
T1 sequence (P14174 2-115 limits assumed): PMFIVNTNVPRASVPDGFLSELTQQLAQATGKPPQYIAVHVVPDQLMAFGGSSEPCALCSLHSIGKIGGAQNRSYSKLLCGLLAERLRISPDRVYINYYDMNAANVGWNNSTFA
Excerpt: An alternative in vitro assay is designed to measure the ability of MIF to catalyze tautomerization of the D-isomer of dopachrome (see Rosengren et al., Mol. Med. 2:143-149, 1996; Winder et al., J. Cell Sci. 106:153-166, 1993; Aroca et al., Biochem. J. 277:393-397). Briefly, in this method, D-dopachrome is provided to MIF in the presence and absence of a candidate inhibitor and the ability to catalyze the tautomerization to 5,6-dihydroxyindole-2-carboxylic acid (DHICA) is monitored. However, use of methyl esters of D-dopachrome may be preferred in that a faster reaction rate is observed. Detection of the tautomerization can be performed by any one of a variety of standard methods.
In a similar assay, the ability of MIF to catalyze the tautomerization of phenylpyruvate may be tested (see Johnson et al., Biochem. 38(48):16024-16033, 1999). Briefly, in this method, typically ketonization of phenylpyruvate or (p-hydroxyphenyl)pyruvate is followed by spectroscopy. Further, product formation may be verified by treatment of these compounds with MIF and subsequent conversion to malate for ^1H NMR analysis.
The tautomerization reaction is carried out essentially as described by Rosengren et al., Mol. Med 2(1):143-149, 1996. D-dopachrome conversion to 5,6-dihydroxyindole-2-carboxylic acid is assessed. 1 ml sample cuvettes containing 0.42 mM substrate and 1.4 μg of MIF in a sample solution containing 0.1 mM EDTA and 10 mM sodium phosphate buffer, pH 6.0 are prepared and the rate of decrease in iminochrome absorbance is followed at 475 nm. L-dopachrome is employed as a control. In addition, the reaction products can be followed using an HPLC, utilizing a mobile phase including 20 mM KH2PO4 buffer (pH 4.0) and 15% methanol with a flow rate of 1.2 ml/min. Fluorimetric detection is followed at 295/345 nm.
Alternatively, the tautomerization reaction utilizing phenylpyruvate or (p-hydroxyphenyl)pyruvate is carried out essentially as described by Johnson et al., Biochem. 38:16024-16033, 1999. In this version, ketonization of phenylpyruvate is monitored at 288 nm (ε=17300 M^−1 cm^−1) and the ketonization of (p-hydroxyphenyl)pyruvate is monitored at 300 nm (ε=21600 M^−1 cm^−1). The assay mixture contains 50 mM Na2HPO4 buffer (1 mL, pH 6.5) and an aliquot of a solution of MIF sufficiently dilute (0.5-1.0 μL of a 2.3 mg/mL solution, final concentration of 93-186 nM) to yield an initial liner rate. The assay is initiated by the addition of a small quantity (1-3.3 μL) of either phenylpyruvate or (p-hydroxyphenyl)pyruvate from stock solutions made up in ethanol. The crystalline forms of phenylpyruvate and (p-hydroxyphenyl)pyruvate exist exclusively as the enol isomers (Larsen et al., Acta Chem. Scand. B 28:92-96, 1974).

[1] = target: T2, MIF produced by THP-1 cells (Homo sapiens, UniProt P14174); assay: THP-1 Cell Assay (THP-1/MIF inhibition, ELISA with anti-MIF monoclonal antibody); type: cell-based
T2 construct: a test cell may express the MIF naturally (e.g., THP-1 cells); endogenous in cells; host or cells: THP-1 cells, LPS-stimulated; conditioned supernatant
T2 sequence (P14174 2-115 limits assumed): T1 sequence (P14174 2-115 limits assumed)
Excerpt: The assays may generally be divided into three categories, those being, assays which monitor export; those which monitor effector or small molecule binding, and those that monitor MIF activity. However, it should be noted that combinations of these assays are within the scope of the present application. […] In an alternative, these two assays (i.e., binding and activity assays) may be combined into a singular assay which detects binding of a test compound (e.g., the ability to displace monoclonal antibodies or inhibit their binding) while also affecting MIF activity. Such assays include combining an ELISA type assay (or similar binding assay) with a MIF tautomerism assay or similar functional assay. As one of ordinary skill in the art may readily recognize, the exact assay employed is irrelevant, provided it is able to detect the ability of the compound of interest to bind MIF.
Varying concentrations of inhibitor analogs are added to LPS stimulated THP-1 cells and allowed to incubate overnight. The following day the amount of immunoreactive MIF detected is evaluated by ELISA.
The high throughput screening assay for MIF inhibitors is performed in a 96-well format using MIF produced by THP-1 cells and is performed as follows. MIF assays are performed by ELISA as indicated above. […] The amount of MIF is calculated by interpolation from an MIF standard curve.

[2] = average of the determinations, read-out: Average IC 50 (Tautomerase Assay)
[3] = single determinations, range in brackets, read-out: Tautomerase Assay (Inhibitory Concentration (IC) of 50 μm)

Q: For `N#Cc1c(N2CCN(C(=O)c3cnccn3)CC2)c2ccccc2n(Cc2ccc(F)cc2)c1=O` [Compound 95, 1-(4-Fluoro-benzyl)-2-oxo-4-[4-(pyrazine-2-carbonyl)-piperazin-1-yl]-1,2-dihydro-quinoline-3-carbonitrile], which melting point is on record?
A: 145 to 156 °C

Q: With `N#Cc1c(N2CCN(C(=O)c3ccc4ccccc4n3)CC2)c2ccccc2n(Cc2ccc(F)cc2)c1=O` [Compound 96, 1-(4-Fluoro-benzyl)-2-oxo-4-[4-(quinoline-2-carbonyl)-piperazin-1-yl]-1,2-dihydro-quinoline-3-carbonitrile] as the compound, how does the melting point read?
A: 144 to 157 °C

Q: With `Cc1cc(C(=O)N2CCN(c3c(C#N)c(=O)n(Cc4ccc(F)cc4)c4ccccc34)CC2)no1` [Compound 97, 1-(4-Fluoro-benzyl)-4-[4-(5-methyl-isoxazole-3-carbonyl)-piperazin-1-yl]-2-oxo-1,2-dihydro-quinoline-3-carbonitrile] as the compound, how does the melting point read?
A: 130 to 137 °C

Q: For `N#Cc1c(N2CCN(C(=O)C3CCCO3)CC2)c2ccccc2n(Cc2ccc(F)cc2)c1=O` (stereo not drawn) [Compound 98, 1-(4-Fluoro-benzyl)-2-oxo-4-[4-(tetrahydro-furan-2-carbonyl)-piperazin-1-yl]-1,2-dihydro-quinoline-3-carbonitrile], which melting point is on record?
A: 123 to 135 °C

Q: Which melting point does the source give for `N#Cc1c(N2CCN(C(=O)c3ccc4c(c3)OCO4)CC2)c2ccccc2n(Cc2ccc(F)cc2)c1=O` [Compound 99, 4-[4-(Benzo[1,3]dioxole-5-carbonyl)-piperazin-1-yl]-1-(4-fluoro-benzyl)-2-oxo-1,2-dihydro-quinoline-3-carbonitrile] here?
A: 140 to 160 °C

Q: For `N#Cc1c(N2CCN(C(=O)c3ccc(C(F)(F)F)cc3)CC2)c2ccccc2n(Cc2ccc(F)cc2)c1=O` [Compound 100, 1-(4-Fluoro-benzyl)-2-oxo-4-[4-(4-trifluoromethyl-benzoyl)-piperazin-1-yl]-1,2-dihydro-quinoline-3-carbonitrile], which melting point is on record?
A: 181 to 185 °C

Q: For `N#Cc1c(N2CCN(C(=O)c3c[nH]cn3)CC2)c2ccccc2n(Cc2ccc(F)cc2)c1=O` [Compound 101, 1-(4-Fluoro-benzyl)-4-[4-(1H-imidazole-4-carbonyl)-piperazin-1-yl]-2-oxo-1,2-dihydro-quinoline-3-carbonitrile], which melting point is on record?
A: 176 to 183 °C

Q: Which melting point does the source give for `N#Cc1c(N2CCN(C(=O)C3CCCS3)CC2)c2ccccc2n(Cc2ccc(F)cc2)c1=O` (stereo not drawn) [Compound 102, 1-(4-Fluoro-benzyl)-2-oxo-4-[4-(tetrahydro-thiophene-2-carbonyl)-piperazin-1-yl]-1,2-dihydro-quinoline-3-carbonitrile] here?
A: 133 to 140 °C

Q: Which IC50 (MIF; [2]) does the source give for `Cn1c(=O)c(C#N)c(N2CCN(C(=O)c3cccs3)CC2)c2ccccc21` [Compound 200] here?
A: 320 nM

Q: And the “MIF inhibitory activity, comparison of Compound 200 and Compound 203” value (MIF)?
A: satisfactory MIF inhibitory activity

Q: And the “in vitro tautomerase inhibitory activity” value (MIF)?
A: exhibits MIF inhibitory activity

Q: And the IC50 (MIF; [3])?
A: 300 nM and 340 nM

Q: What about the IC50 ([1]; average of the determinations, read-out: Average IC 50 (THP-1/MIF Inhibition)) of the same compound?
A: 150 nM

Q: What about the “MIF inhibitory activity in the THP-1 Cell Assay” value ([1]; several different concentrations, FIG. 1) of the same compound?
A: exhibits MIF inhibitory activity

Q: Which IC50 (MIF; [2]) does the source give for `N#Cc1c(N2CCN(C(=O)c3cccs3)CC2)c2ccccc2n(Cc2ccc(F)cc2)c1=O` [Compound 203] here?
A: 98 nM

Q: What about the “MIF inhibitory activity, comparison of Compound 200 and Compound 203” value (MIF) of the same compound?
A: satisfactory MIF inhibitory activity

Q: What about the “in vitro tautomerase inhibitory activity” value (MIF) of the same compound?
A: exhibits MIF inhibitory activity

Q: And the IC50 (MIF; [3])?
A: 98 nM

Source: patent US7312221B2, “Inhibitors of macrophage migration inhibitory factor and methods for identifying the same” (Avanir Pharmaceuticals, priority 2003, dated 2007)
